Tested on: LS174 CRC cells
Assay: CRC cell proliferation assay (Vi-Cell)
Format: cell-based
Description: Luciferase and cell proliferation assay. HEK293T cells were transiently transfected in a 12-well plate with 0.2 μg of the Super8xTOPFlash reporter and 0.05 μg of Renilla luciferase reporter. Culture medium was changed after 12 h. After 6 h, cells were treated with DMSO or Wnt inhibitors for 12 h, and then treated with 25 mM LiCl or Wnt conditioned medium. After 12 h, cells were harvested and luciferase activity measured by Dual-luciferase Reporter Assay System (Promega, Madison Wis.). All conditions were done in triplicate and each experiment was carried out at least two times. For cell proliferation assay, CRC cells were treated with DMSO or inhibitors for 2d and 4d. The cell numbers and viability were analyzed by Vi-Cell Cell Viability Analyzer.
Western blot and cell proliferation assay. The activity of fluorinated N,N-dialkylaminostilbenes (FIDAS or FIDAS agents) on Wnt signaling activity in cancer cells were analyzed by Western blot with antibodies against Wnt target genes, such as c-Myc, Axin2. The effects of FlDAS agents on cancer cell growth were analyzed using Cell Viability Analyzer (Beckman Coulter, Vi-Cell XR). These assays have been described previously (see Zhang et al., J. of Med. Chem. 54, 1288-1297 (2011)).

CN(C)c1ccc(/C=C/c2c(F)cccc2F)cc1 [4r, (E)-4-(2,6-Difluorostyryl)-N,N-dimethylaniline]
LS174 cell proliferation at nanomolar concentrations (0.1, 0.3 and 1 μM (FIG. 7A)): inhibited LS174 cell proliferation at nanomolar concentrations
CRC cell growth inhibition compared with other compounds (cell proliferation assay): more potent than compound 4e
